Patent US9845326B2, “Substituted 3,4-dihydropyrrolo[1,2-A]pyrazines as beta-secretase (BACE) inhibitors” (priority 2011, dated 2017)

Key:
[1] = system: Aβ42; test: Cellular αlisa assay in SKNBE2 cells, Aβ42; assay type: cell-based, human; details: Homo sapiens, SKNBE2, 18 h, SKNBE2 cells expressing hAPP695, 18 hours incubation; read-out: Cellular αlisa assay in SKNBE2 cells Aβ42 pIC50 (converted)
Description: (§1) In two αlisa assays the levels of Aβtotal and Aβ42 produced and secreted into the medium of human neuroblastoma SKNBE2 cells are quantified. The assay is based on the human neuroblastoma SKNBE2 expressing the wild type Amyloid Precursor Protein (hAPP695). The compounds are diluted and added to these cells, incubated for 18 hours and then measurements of Aβ42 and Aβtotal are taken. Aβtotal and Aβ42 are measured by sandwich αlisa. αlisa is a sandwich assay using biotinylated antibody AbN/25 attached to streptavidin coated beads and antibody Ab4G8 or cAb42/26 conjugated acceptor beads for the detection of Aβtotal and Aβ42 respectively. In the presence of Aβtotal or Aβ42, the beads come into close proximity. The excitation of the Donor beads provokes the release of singlet oxygen molecules that triggers a cascade of energy transfer in the Acceptor beads, resulting in light emission. Light emission is measured after 1 hour incubation (excitation at […] and emission at 615 nm).
(§2) From this an […] value (inhibitory concentration causing 50% inhibition of activity) can be obtained.

[2] = molecular target: BACE1 (Homo sapiens, UniProt P56817); test: Biochemical FRET based assay; details: Biochemical FRET based assay pIC50, recombinant BACE1 1 μg/ml, 120 min, room temperature, pH 5.0
Source text: This assay is a Fluorescence Resonance Energy Transfer Assay (FRET) based assay. The substrate for this assay is an APP derived 13 amino acids peptide that contains the ‘Swedish’ Lys-Met/Asn-Leu mutation of the amyloid precursor protein (APP) β-secretase cleavage site. This substrate also contains two fluorophores: (7-methoxy-coumarin-4-yl) acetic acid (Mca) is a fluorescent donor with excitation wavelength at 320 nm and emission at 405 nm and 2,4-Dinitrophenyl (Dnp) is a proprietary quencher acceptor. […] Upon cleavage by BACE1, the fluorophore Mca is separated from the quenching group Dnp, restoring the full fluorescence yield of the donor. The increase in fluorescence is linearly related to the rate of proteolysis (Koike H et al. J. Biochem. 1999, 126, 235-242).
Briefly in a 384-well format recombinant BACE1 protein in a final concentration of 1 μg/ml is incubated for 120 min at room temperature with 10 μm substrate in incubation buffer (40 mM Citrate buffer pH 5.0, 0.04% PEG, 4% DMSO) in the absence or presence of compound. Next the amount of proteolysis is directly measured by fluorescence measurement at T=0 and T=120 (excitation at 320 nm and emission at 405 nm). Results are expressed in RFU, as difference between T120 and T0
From this an IC50 value (inhibitory concentration causing 50% inhibition of activity) can be obtained.

[3] = system: Aβtotal; test: Cellular αlisa assay in SKNBE2 cells, Aβtotal; assay type: cell-based, human; details: Homo sapiens, SKNBE2, 18 h, SKNBE2 cells expressing hAPP695, 18 hours incubation; read-out: Cellular αlisa assay in SKNBE2 cells Aβtotal pIC50 (converted)
Description: as §1, §2

[4] = system: Aβtotal; test: In vivo efficacy: brain Aβtotal lowering (ELISA); design: species or system mouse; details: 30 mg/kg, p.o., 4 h. after administration, soluble fraction
Source text: (§3) To determine whether acute administration of an Aβ42 peptide lowering agent would reduce Aβ peptide levels in vivo, non-transgenic rodents, e.g. mice or rats were used. Animals treated with the Aβ peptide lowering agent were examined and compared to those untreated or treated with vehicle and brain levels of soluble Aβ42 and total Aβ were quantitated by standard techniques, for example, using ELISA. Treatment periods varied from hours (h) to days and were adjusted based on the results of the Aβ42 lowering once a time course of onset of effect could be established.
(§4) A typical protocol for measuring Aβ42 lowering in vivo is shown but it is only one of many variations that could be used to optimize the levels of detectable Aβ. […] After a certain time, usually 2 or 4 h (as indicated in Table 7), the animals were sacrificed and Aβ42 levels were analysed.
(§5) Blood was collected by decapitation and exsanguinations in EDTA-treated collection tubes. […] The left hemisphere was stored at −18° C. for quantitative analysis of test compound levels. […]
(§6) Mouse brains from non-transgenic animals were resuspended in 8 volumes of 0.4% DEA (diethylamine)/50 mM NaCl containing protease inhibitors (Roche-11873580001 or 04693159001) per gram of tissue, e.g. for 0.158 g brain, add 1.264 ml of 0.4% DEA. […] Nine parts of supernatant were neutralized with 1 part 0.5 M Tris-HCl pH 6.8 and used to quantify Aβtotal and Aβ42. […]

[5] = system: Aβ42; test: In vivo efficacy: brain Aβ42 lowering (ELISA); design: species or system mouse; details: 30 mg/kg, p.o., 4 h. after administration, soluble fraction
Source text: as §3, §4, §5, §6

Sequence of BACE1 (P56817 46-501): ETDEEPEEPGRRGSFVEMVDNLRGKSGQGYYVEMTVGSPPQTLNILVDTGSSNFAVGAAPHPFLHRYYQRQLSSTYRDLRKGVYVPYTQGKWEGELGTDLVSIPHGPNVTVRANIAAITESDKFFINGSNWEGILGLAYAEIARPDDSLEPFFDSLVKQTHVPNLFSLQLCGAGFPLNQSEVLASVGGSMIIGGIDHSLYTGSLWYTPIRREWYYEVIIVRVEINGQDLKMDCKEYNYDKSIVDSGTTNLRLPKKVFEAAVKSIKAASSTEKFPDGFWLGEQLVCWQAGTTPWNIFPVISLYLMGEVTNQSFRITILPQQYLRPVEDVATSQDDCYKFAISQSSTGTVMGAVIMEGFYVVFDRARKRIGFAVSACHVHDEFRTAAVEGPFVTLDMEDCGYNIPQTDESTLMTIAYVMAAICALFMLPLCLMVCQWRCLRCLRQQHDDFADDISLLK

C[C@@]1(c2cc(NC(=O)c3ccc(F)cn3)ccc2F)Cn2cc(F)cc2C(N)=N1 [Compound 7, (R)-5-Fluoro-pyridine-2-carboxylic acid [3-(1-amino-7-fluoro-3-methyl-3,4-dihydro-pyrrolo[1,2-a]pyrazin-3-yl)-4-fluoro-phenyl]-amide]
IC50 [1]: 6.61 nM
IC50 [2]: 41.7 nM
IC50 [3]: 5.62 nM
Aβtotal (%Ctrl)_Mean [4]: 99 %Ctrl
Aβ42 (%Ctrl)_Mean [5]: 73 %Ctrl
